{
  "source": "patent US9107852B2",
  "about": "“Uses of agonists of delta opioid receptor in cosmetic and dermocosmetic field” (Induchem Holding AG, priority 2012, dated 2015)",
  "system": "opioid receptor delta (DOR)",
  "assay": "Scoring of DOR1 expression in RHE stimulated with cytokines",
  "format": "cell-based, human",
  "conditions": "JAK inhibitor I tested at 10 μM",
  "method": "In the present study, the effects of a peptide (YPLDLF, SEQ ID No 1) on the expression of opioid receptor delta (DOR) were researched on a reconstructed human epidermis (RHE) model under basal or stimulated conditions. More precisely, the RHE were stimulated by a mix of cytokines (IL-17+OSM+TNF-α) able to induce a strong inflammatory profile and a psoriatic phenotype in keratinocytes.\nReconstructed human epidermis (RHE) of 11 days old was prepared according to a derived method described by Poumay et al. (2004). These RHE were cultivated at 37° C. and 5% of CO2 in a specific maintenance medium.\nThe RHE treated under basal conditions were placed in assay medium containing or not (non-stimulated control) the peptide solutions and incubated for 54 hours. For inflammatory conditions, the RHE were placed in assay medium containing or not (stimulated control) the peptide solutions or the reference […] at 10 μM) and pre-incubated for 6 hours. The RHE were then stimulated with a mix of cytokines (IL-17+OSM+TNF-α at 3 ng/ml) and incubated for 48 hours. All experimental conditions were performed in n=3.\nAt the end of incubation, the supernatants were collected and the RHE were washed in phosphate buffered saline solution (PBS) for immunohistofluorescence analysis. […]",
  "note": "Ends that are not written are not given here.",
  "data": [
    {"substance": "YPLDLF [YPLDLF]", "values": [
      {"measurement": "inhibitory effect of the cytokine mix on OPRD1 expression", "value": "reversed"}
    ]}
  ]
}
